{"source": "patent US11034960B2", "about": "“PKLR inhibition in the treatment of NAFLD and HCC” (ScandiEdge Therapeutics AB, priority 2017, dated 2021)", "key": {"K562 cells [1]": {"test_system": "K562 cells", "test": "RT-PCR gene expression in K562 cells after interference by C75 or PKLR-specific siRNA for 24 hours", "assay_type": "cell-based, human", "conditions": "C75 at different concentrations (0, 40, 60 μM), FIG. 2A", "protocol": "(§1) RNA was isolated for RT-PCR after interference for 24 hours; GAPDH was set as the internal reference. Cell counting was performed after interference for 72 hours. Data are presented as the means±standard errors of five independent experiments. Comparisons were performed by one-way ANOVA. Samples without any interference were assigned as controls. * represents a significant difference compared with the value in the control group (P<0.05).\n(§2) For subsequent experiments, K562 and HepG2, human immortalized myelogenous leukemia and hepatic cell lines, respectively, were selected. Both cell lines were cultured in RPMI-1640 medium (R2405, Sigma-Aldrich) supplemented with 10% fetal bovine serum (FBS, F2442, Sigma Aldrich) and incubated in 5% CO2 humidity at 37° C. […]\n(§3) Total RNA was isolated with TRIzol reagent (15596026, Thermo Fisher Scientific) after treatment with C75 or siRNA for 24 hours. The expression profiles of key genes (FASN, PKLR in K562/HepG2, and PNPLA3, PCSK9 only in HepG2 cells) in the co-expression network were measured and analyzed via quantitative real-time PCR with iTaq Universal SYBR Green One-Step Kit (1725151, Bio-Rad), using anchored oligo (dT) primer based on CFX96™ detection system (Bio-Rad). […] Variation in cell proliferation was detected with a Cell Counting Kit-8 (CCK-8, CK04, Dojindo) after interference by C75/siRNA for 72 hours. […]"}, "K562 cells [2]": {"test_system": "K562 cells", "test": "Cell growth of K562 cells (Cell Counting Kit-8) after interference for 72 hours", "assay_type": "cell-based, human", "conditions": "C75 (0, 20, 40, 60, 80 μM), FIG. 2B", "protocol": "as §1, §2, §3"}, "HepG2 cells [3]": {"test_system": "HepG2 cells", "test": "RT-PCR gene expression in HepG2 cells after interference by C75 or PKLR-specific siRNA for 24 hours", "assay_type": "cell-based, human", "conditions": "C75 (0, 40, 60 μM), FIG. 2C", "protocol": "as §1\nFor subsequent experiments, K562 and HepG2, human immortalized myelogenous leukemia and hepatic cell lines, respectively, were selected. Both cell lines were cultured in RPMI-1640 medium (R2405, Sigma-Aldrich) supplemented with 10% fetal bovine serum (FBS, F2442, Sigma Aldrich) and incubated in 5% CO2 humidity at 37° C.\nTo confirm the speculated CN, chemical inhibitors and RNA interference (RNAi) assays were chosen to interfere with the immortalized cell lines (including K562 and HepG2) and the subsequent candidate gene expression and cell growth patterns were observed. More specifically, the experimental protocol was as follows: (1) C75 (C5490, Sigma-Aldrich), as a well-known fatty acid synthase [FAS] inhibitor, was added to cells at 80% confluence with a final concentration of 20, 40, 60, or 80 μM (taking cells without C75 interference as the control); (2) cells at 80% confluence were separately transfected with […] of Silencer® pre-designed PKLR-targeted siRNAs (clone ID: 53 (SEQ ID NO:2 and SEQ ID NO:3), 54 (SEQ ID NO:2 and SEQ ID NO:5), Life Technologies) at 15 nM by using Lipofectamine® RNAiMAX (13778075, Life Technologies). Cells incubated in medium with non-target negative control siRNA at 15 nM (4390843, Life Technologies) were assigned as the control.\nTotal RNA was isolated with TRIzol reagent (15596026, Thermo Fisher Scientific) after treatment with C75 or siRNA for 24 hours. The expression profiles of key genes (FASN, PKLR in K562/HepG2, and PNPLA3, PCSK9 only in HepG2 cells) in the co-expression network were measured and analyzed via quantitative real-time PCR with iTaq Universal SYBR Green One-Step Kit (1725151, Bio-Rad), using anchored oligo (dT) primer based on CFX96™ detection system (Bio-Rad). GAPDH was set as the internal control for normalization. The primer sequences were SEQ ID NO:9 (FASN forward), SEQ ID NO:10 (FASN reverse), SEQ ID NO:11 (PKLR forward), SEQ ID NO:12 (PKLR reverse), SEQ ID NO:13 (PNPLA3 forward), SEQ ID NO:14 (PNPLA3 reverse), SEQ ID NO:15 (PCSK9 forward), SEQ ID NO:16 (PCSK9 reverse), SEQ ID NO:17 (GAPDH forward) and SEQ ID NO:18 (GAPDH reverse). Variation in cell proliferation was detected with a Cell Counting Kit-8 (CCK-8, CK04, Dojindo) after interference by C75/siRNA for 72 hours. […]"}, "HepG2 cells [4]": {"test_system": "HepG2 cells", "test": "Cell growth of HepG2 cells (Cell Counting Kit-8) after interference for 72 hours", "assay_type": "cell-based, human", "conditions": "different concentrations of C75 (0, 20, 40, 60, 80 μM), FIG. 2D", "protocol": "as §1, §2, §3"}, "[5]": {"test_system": "primary human hepatocytes", "test": "mRNA expression in primary human hepatocytes treated with C75 (TaqMan real-time PCR)", "assay_type": "cell-based", "conditions": "40 μg/ml C75, 4, 6, 8 or 24 hours, FIG. 3F", "protocol": "Human primary hepatocytes were purchased from Biopredic International. Twenty-four hours after arrival (48 hours after isolation), human hepatocytes were treated with 40 μg/ml of C75 or dimethyl sulfoxide (DMSO) for 4, 6, 8 or 24 hours.\nTotal RNA was isolated from human hepatocytes and snap-frozen mouse liver with an RNeasy Mini Kit (Qiagen). cDNA was synthesized with a high-capacity cDNA Reverse Transcription Kit (Applied Biosystems) and random primers. The mRNA expression levels of genes of interest were analyzed via TaqMan real-time PCR in a ViiATM7 System (Applied Biosystems). The TaqMan Gene Expression assays used were Mm01263610_m1 (for mouse Pcsk9), Mm00662319_m1 (mouse Fasn), Mm00443090_m1 (mouse Pklr), Mm00504420_m1 (mouse Pnpla3), Mm01282499_m1 (mouse Hmgcr), Hs00545399_m1 (human PCSK9), Hs01005622_m1 (human FASN), Hs00176075_m1 (human PKLR), Hs00228747_m1 (human PNPLA3), and Hs00168352_m1 (human HMGCR) (all from Applied Biosystems). Hprt (mouse Mm03024075_m1) and GADPH (human Hs02758991_g1) (Applied Biosystems) were used as internal controls."}, "PKLR": {"test_system": "PKLR", "test": "qPCR of target gene expression in HepG2 cells after siRNA or expression plasmid transfection", "assay_type": "cell-based, human", "conditions": "siRNA 50 nM, 72 hours, P<0.05", "protocol": "HepG2 cell line was purchased from ATCC and selected for subsequent genetic modification. Cells were routinely cultured in humidified incubator with 5% CO2 at 37°. Cells were maintained by RPMI 1640 medium (R2405, Sigma-Aldrich) with 10% fetal bovine serum (FBS, F7524, Sigma-Aldrich).\nFor downregulation of target genes, PKLR, PNPLA3, and PCSK9, RNAi experiment was performed by silencer predesigned siRNA kit (Assay ID: 53 for PKLR, 121938 for PNPLA3 and 103966 for PCSK9, Thermo Fisher Scientific, USA). According to the manufacturer's instructions, HepG2 cells were treated by specific siRNA at 50 nM of final concentration using reverse transfection on the help of Lipofectamine RNAiMAX for 72 hours. Negative Control for transfection (4390843, Thermo Fisher Scientific, USA) was selected as standard for comparison from the same company. […]\nCells were treated for experiment when they were grown to 80% confluence. […] Expressions of target genes were validated by quantitative real-time PCR (Schmittgen and Livak, 2008). […] And the relative expression of each gene was calculated by 2-ΔΔCT method described before (Schmittgen and Livak, 2008). β-actin was selected as internal reference gene for normalization.\nAll results of measurement were presented/shown by mean±SD and One-way ANOVA was applied for comparisons in quantitative covariates. […]"}, "HepG2 cells [6]": {"test_system": "HepG2 cells", "test": "Lipidomics measurement of triglycerides in HepG2 cells with PKLR downregulation", "assay_type": "cell-based, human", "protocol": "To better clarify the genetic impact of PKLR on lipid deposition, cells were treated by siRNA and then tested by mass spectrometer for lipidomics data, sequentially. To be specific, HepG2 cells were transfected by siRNA (Assay ID: 53 with target on PKLR, applied by aforementioned method) for 72 hours and then harvested for lipidomics measurement. Correspondingly, cells treated with non-targeting siRNA (4390843, Thermo Fisher Scientific, USA) were assigned as control.\nFor lipidomics measurement, cells were extracted using butanol/methanol (BUME) as previously described (Lofgren et al., 2012). Internal standards (either deuterated or containing heptadecanoyl (C17:0) fatty acids) were added during the extraction. Analysis of triacylglycerols and phosphatidylcholines were made using direct infusion on a QTRAP 5500 mass spectrometer (Sciex, Concord, Canada) equipped with a robotic nanoflow ion source, the TriVersa NanoMate (Advion BioSciences, Ithaca, N.J.). Detection of triacylglycerols was made using neutral loss scanning in positive mode (Murphy et al., 2007). Phosphatidylcholines were analyzed in positive mode using m/z 184 (phosphocholine) as fragment ion (Brugger et al., 1997)."}}}
{"compound": "C=C1C(=O)OC(CCCCCCCC)C1C(=O)O", "note": "(stereo not shown) [C75]", "values": [{"measurement": "FASN expression level", "setting": "K562 cells [1]", "value": "significantly decreased"}, {"measurement": "PKLR expression level", "setting": "K562 cells [1]", "value": "significantly decreased"}, {"measurement": "cell growth", "setting": "K562 cells [2]", "value": "significant decrease"}, {"measurement": "FASN expression level", "setting": "HepG2 cells [3]", "value": "significantly decreased"}, {"measurement": "PCSK9 expression level", "setting": "HepG2 cells [3]", "value": "significantly decreased"}, {"measurement": "PKLR expression level", "setting": "HepG2 cells [3]", "value": "significantly decreased"}, {"measurement": "PNPLA3 expression level", "setting": "HepG2 cells [3]", "value": "significantly decreased"}, {"measurement": "cell growth", "setting": "HepG2 cells [4]", "value": "significantly decreased"}, {"measurement": "expression of FASN in relation to expression of PKLR, PCSK9, PNPLA3", "setting": "[5]", "value": "interconnected"}]}
{"compound": "siRNA 53: PKLR-targeted Silencer pre-designed siRNA; sense sequence SEQ ID NO:5, antisense sequence SEQ ID NO:6 (sense GGAGAUGAUCAAGGCCGGGTT; antisense CCCGGCCUUGAUCAUCUCCTT; chemistry not given here; listed as Homo sapiens)", "values": [{"measurement": "inhibitory rate of PKLR expression (down-regulation vs negative control)", "setting": "PKLR", "value": 96, "unit": "%"}, {"measurement": "decrease of total triglyceride compared to negative control", "setting": "HepG2 cells [6]; after adjusting based on the phosphatidylcholines levels", "value": "about 15%"}, {"measurement": "triglyceride level", "setting": "HepG2 cells [6]; siRNA 72 hours vs non-targeting negative control, P<0.05", "value": "significant decrease"}, {"measurement": "total triglyceride adjusted based on the phosphatidylcholines levels", "setting": "HepG2 cells [6]; siRNA 72 hours, negative control 555.0±51.2", "value": "471.7±45.5"}]}
